Source: the NIST ThermoML archive (doi:10.1021/je060291c)
Several values for one entry are separate records, joined by “and”; a condition that tells them apart may be missing. Equal entries are not always repeated.

Test: wn = mass fraction of the nth substance listed
Conditions: Liquid, Pulse-echo method, w2 = 0.49

CC(F)(F)F [1,1,1-trifluoroethane] + FC(F)C(F)(F)F
speed of sound
Conditions | 288.18 K | 298.19 K | 308.19 K | 318.2 K | 328.17 K | 338.18 K
1290 kPa | – | 375.4 m/s | – | – | – | –
1300 kPa | – | 375.4 m/s and 375.5 m/s | – | – | – | –
1360 kPa | – | 376.9 m/s | – | – | – | –
1510 kPa | – | 379.6 m/s | – | – | – | –
1630 kPa | – | 381.8 m/s | – | – | – | –
1670 kPa | – | – | 324.1 m/s and 324.2 m/s | – | – | –
1740 kPa | – | – | 326 m/s | – | – | –
1750 kPa | – | 384.2 m/s | – | – | – | –
1840 kPa | – | – | 328.4 m/s | – | – | –
2010 kPa | 440.2 m/s | 388.7 m/s | 332.4 m/s | – | – | –
2120 kPa | – | – | – | 270.3 m/s | – | –
2180 kPa | – | – | – | 272.6 m/s | – | –
2250 kPa | 444 m/s | 393 m/s | 338 m/s | 274.9 m/s | – | –
2360 kPa | – | – | – | 278.2 m/s | – | –
2510 kPa | 447.4 m/s | 397.3 m/s | 343.6 m/s | 282.9 m/s | – | –
2660 kPa | – | – | – | – | 211.8 m/s and 211.9 m/s | –
2750 kPa | 450.9 m/s | 401.5 m/s | 348.9 m/s | 290.4 m/s | 216.9 m/s | –
2880 kPa | – | – | – | – | 223.4 m/s | –
3010 kPa | 454.3 m/s | 405.6 m/s | 354 m/s | 297.5 m/s | 229.4 m/s | –
3380 kPa | – | – | – | – | – | 154.6 m/s
3440 kPa | – | – | – | – | – | 160.1 m/s
3500 kPa | 460.9 m/s | 413.4 m/s | 363.8 m/s | 310.3 m/s | 249.7 m/s | 165.9 m/s
3660 kPa | – | – | – | – | – | 178.1 m/s
3830 kPa | – | – | – | – | – | 189 m/s
4000 kPa | 467.5 m/s | 421.1 m/s | 373.1 m/s | 322.1 m/s | 266.3 m/s | 199.1 m/s
4250 kPa | – | – | – | – | – | 211.1 m/s
4500 kPa | 473.5 m/s | 428.4 m/s | 381.8 m/s | 333 m/s | 280.9 m/s | 221.8 m/s
5000 kPa | 479.7 m/s | 435.4 m/s | 390.1 m/s | 343.1 m/s | 294 m/s | 240.3 m/s
6010 kPa | 491.5 m/s | 448.7 m/s | 405.6 m/s | 361.7 m/s | 316.6 m/s | 269.8 m/s
7010 kPa | 502.5 m/s | 461.1 m/s | 419.8 m/s | 378.2 m/s | 336.3 m/s | 293.8 m/s
8000 kPa | 513.1 m/s | 473 m/s | 433.3 m/s | 393.4 m/s | 353.7 m/s and 354 m/s and 353.9 m/s | 314.4 m/s
9000 kPa | 523.2 m/s | 484.3 m/s | 445.6 m/s | 407.7 m/s | 370 m/s | 333 m/s
10000 kPa | 532.9 m/s | 494.9 m/s | 457.5 m/s | 420.9 m/s | 384.7 m/s | 349.3 m/s
12000 kPa | 551.3 m/s | 515.1 m/s | 479.6 m/s | 445 m/s | 411.3 m/s | 378.7 m/s
14000 kPa | 568.6 m/s | 533.7 m/s | 499.8 m/s | 466.9 m/s | 435.1 m/s | 404.3 m/s
16010 kPa | 585 m/s | 551.1 m/s | 518.5 m/s | 487 m/s | 456.6 m/s | 427.4 m/s
18000 kPa | 600.2 m/s | 567.6 m/s | 536.1 m/s | 505.5 m/s | 476.5 m/s | 448.3 m/s
20000 kPa | 614.9 m/s | 583.2 m/s | 552.6 m/s | 523 m/s | 494.7 m/s | 467.8 m/s
23000 kPa | 635.8 m/s | 605.1 m/s | 575.7 m/s | 547.4 m/s | 520.4 m/s | 494.6 m/s
26000 kPa | 655.3 m/s | 625.5 m/s | 597.3 m/s | 569.9 m/s | 543.8 m/s | 519 m/s
29010 kPa | 673.8 m/s | 645.1 m/s | 617.4 m/s | 591 m/s | 565.9 m/s | 541.7 m/s
32000 kPa | 691.2 m/s | 663.2 m/s | 636.3 m/s | 610.7 m/s | 586.4 m/s | 563 m/s
35000 kPa | 708.3 m/s | 680.8 m/s | 654.6 m/s and 654.3 m/s | 629.4 m/s | 605.5 m/s and 605.8 m/s | 583 m/s
40000 kPa | 734.9 m/s | 708.2 m/s | 682.9 m/s | 658.7 m/s | 635.7 m/s | 613.8 m/s
45000 kPa | 759.7 m/s | 734 m/s | 709.3 m/s | 685.8 m/s | 663.5 m/s | 642.4 m/s
50000 kPa | 783.2 m/s | 758 m/s | 734 m/s | 711.3 m/s | 689.5 m/s | 669 m/s
55000 kPa | 805.1 m/s | 780.7 m/s and 780.9 m/s | 757.3 m/s and 757.1 m/s | 734.9 m/s | 714.1 m/s | 693.9 m/s
60000 kPa | 826.3 m/s | 802.3 m/s and 802.4 m/s | 779.5 m/s | 757.7 m/s | 737.1 m/s | 717.2 m/s
65000 kPa | 846.7 m/s | 823.1 m/s | 800.7 m/s | 779.3 m/s | 759 m/s | 739.8 m/s

Conditions | speed of sound [m/s]
298.19 K | 375.4
308.19 K | 324.2
318.2 K | 270.3
328.17 K | 211.8
